Data as given in ChEMBL document CHEMBL4184140, “Expanding the tetrahydroquinoline pharmacophore” (Bioorg Med Chem Lett, 2017).
The source made the active and inactive calls. No cut-off for these calls is given here.

Columns and labels:
[1] = tested on: IMR-32; experiment: Neurotrophic activity in human IMR32 cells assessed as increase in NGF mRNA level at 10 uM by RT-PCR analysis; format: functional, cell-based
[2] = tested on: IMR-32; experiment: Neurotrophic activity in human IMR32 cells assessed as increase in BDNF mRNA level at 10 uM by RT-PCR analysis; format: functional, cell-based
[3] = tested on: IMR-32; experiment: Neurotrophic activity in human IMR32 cells assessed as induction of differentiation at 10 uM after 96 hrs by bright filed microscopic method; format: functional, cell-based
[4] = tested on: IMR-32; experiment: Neurotrophic activity in human IMR32 cells assessed as increase in NGF protein level at 10 uM by Western blot method; format: functional, cell-based
[5] = tested on: IMR-32; experiment: Neurotrophic activity in human IMR32 cells assessed as appearance of neurites at 1 to 10 uM after 96 hrs by bright field microscopic analysis; format: functional, cell-based
[6] = tested on: HepG2; experiment: Antiproliferative activity against human HepG2 cells; format: functional, cell-based
[7] = tested on: IMR-32; experiment: Neurotrophic activity in human IMR32 cells assessed as length of neurite outgrown after 96 hrs by bright field microscopic analysis; format: functional, cell-based
[8] = tested on: DU-145; experiment: Antiproliferative activity against human DU145 cells; format: functional, cell-based
[9] = tested on: A549; experiment: Antiproliferative activity against human A549 cells; format: functional, cell-based
[10] = tested on: IMR-32; experiment: Cytotoxicity against human IMR32 cells after 48 hrs by SRB assay; format: cell-based; details: IMR-32, 48 h
[11] = tested on: IMR-32; experiment: Neurotrophic activity in human IMR32 cells assessed as increase in BDNF protein level at 10 uM by Western blot method; format: functional, cell-based
[12] = tested on: MCF7; experiment: Antiproliferative activity against human MCF7 cells; format: functional, cell-based
[13] = tested on: IMR-32; experiment: Neurotrophic activity in human IMR32 cells assessed as induction of differentiation at 50 uM after 96 hrs by bright filed microscopic method; format: functional, cell-based
[14] = tested on: IMR-32; experiment: Neurotrophic activity in human IMR32 cells assessed as induction of differentiation at 1 uM after 96 hrs by bright filed microscopic method; format: functional, cell-based

SMILES | Activity [1] | Activity [2] | Activity [3] | Activity [4] | Activity [5] | Activity [6] | Activity [7] | Activity [8] | Activity [9] | IC50 [10] | Activity [11] | Activity [12] | Activity [13] | Activity [14]
O[C@@H]1[C@@H]2c3ccccc3N[C@H](c3cccc(Br)c3)[C@@H]2C[C@@H]1O | Active | Active | Active | Active | Active | inactive | Dose-dependent effect | inactive | inactive | > 100 µM | Active | inactive |  | 
COC(=O)C[C@@H]1[C@H](C(=O)OC)c2ccccc2N(C(C)=O)[C@@H]1c1ccccc1 | Active | Active | Active | Active |  | inactive | Dose-dependent effect | inactive | inactive | 80.6 µM | Active | inactive | Active | 
CC(=O)N1c2ccccc2[C@@H]2[C@@H](C[C@@H]3O[C@H]23)[C@H]1c1ccccc1 | Active | Active | Active | Active |  | inactive | Dose-dependent effect | inactive | inactive | > 100 µM | Active | inactive |  | 
C1=C[C@@H]2c3ccccc3N[C@H](c3ccccc3)[C@@H]2C1 | Active | Active | Active | Active |  | inactive | Dose-dependent effect | inactive | inactive | > 100 µM | Active | inactive |  | Active
